Measurements reported in patent US20050119301A1, “Treatment of restenosis” (priority 2001, published 2005).

Key:
[1] = system: Vascular smooth muscle cells (VSMC) derived from internal mammary artery (IMA); test: Serum-induced VSMC proliferation, [3H]-thymidine incorporation; format: cell-based, human; settings: for proliferation of IMA-derived VSMC (in words) / proliferation of IMA-derived VSMC at high concentrations (in words): 2.5% FBS; for proliferation of IMA-derived VSMC (in words): 0.01-100 mM tested, Cpd. 7 effect from 0.1 mM up to 1 mM
Experimental: Vascular smooth muscle cells (VSMC) derived from internal mammary artery (IMA) were cultured in 10% FBS-DMEM. Cells were grown to confluence in LG (glucose 5 mM)-medium then trypsinized, diluted with 10% FBS-LG medium to about 10,000 cells/ml and 1 ml of suspension was) aliquoted into four 24-well plates. Cells were then allowed to grow for 2 days to visual confluence. LG serum-free media was changed for 48 h to synchronize most cells at Go/G1.
After 24 h of serum-free medium, cells were treated with the compounds (Cpd. 5, Cpd. 7, Cpd. 8 or Cpd. 12) for 4 h and FBS was added (final concentration 2.5%) over night (18-20 hours). 4 wells were allocated for each treatment:
Cell proliferation was induced by a variety of growth factors such as serum and platelet derived growth factor (PDGF).
Media was changed to LG serum-free DMEM and cells were treated with [^3H]-thymidine at 1 μCi/well for 3 hours. Cells were washed twice with ice cold Dulbecco's PBS. Next, ice cold 0.2M HClO4 (1 ml/well) was added and cells were incubated on ice for 30 min. Cells were then washed three times with 0.5 ml/well of ice cold 0.2M HClO4. Media (0.5 ml/well of 0.2 M NaOH) was replaced and cells were incubate at 37° C. After 1 hour, cells were treated with acetic acid (6%, 0.2 ml/well), transferred to scintillation vials with 3 ml scintillation liquid (Instagel) and counted for 2 min per vial.

[2] = system: LDL; test: LDL antioxidation test (CuCl2-initiated LDL oxidation, lag time); format: biochemical, human; settings: 10 mM; Promensil 5 mg/ml
Experimental: The LDL antioxidation test measures the ability of a compound to directly scavenge free radicals or to chelate transition metals. Thus in this series of experiments, the isoflavones and their derivatives were tested for their ability to act as free radical scavengers.
Fresh whole blood was obtained by venipuncture from healthy human volunteers under 25 years of age and supplemented immediately with EDTA (91 mg/ml) and BHT (4.4 mg/ml). LDL was prepared by step-wise ultracentrifugation within a density gradient of 1.02-1.05 g/cm^3. EDTA and BHT were present throughout all the steps of the isolation. The EDTA/BHT containing stock solution (15-30 mg LDL/ml) was stored in the dark in a nitrogen atmosphere until use, but never longer than two weeks.
Before oxidation experiments, the LDL stock solution was dialyzed in the 100-fold volume of 0.01 M phosphate buffer pH 7.4, 0.16 M NaCl, 0.1 mg/ml chloroamphenicol, which was made oxygen-free by vacuum degassing following by purging with nitrogen. The buffer was changed four times. This EDTA- and BHT-free LDL stock solution was used for all oxidation studies. The stock solution was stored not longer than 24 hr at 4° C. For performing the oxidation experiments, the EDTA- and BHT-free LDL stock solution was diluted with oxygen-saturated 0.01 M phosphate buffer pH 7.4, 0.16 M NaCl and the oxidation was initiated by the addition of a freshly prepared aqueous CuCl2 solution. The final conditions were in all experiments: room temperature, 0.25 mg LDL/ml and […] (see Esterbauer et. al., 1989)
The antioxidant activities of the following compounds were tested: daidzein ([…]), genistein ([…]), glycitein ([…]), biochanin ([…]), formononetin ([…]), Promensil™ (Novogen) (2.5 mg/ml, 5 mg/ml), Cpd. 5 (10 mM), Cpd. 7 (10 mM), Cpd. 8 (10 mM), Cpd. 12 (10 mM), Cpd. 4 (10 mM) and Cpd. 6 (10 mM). In each experiment, controls were used to compare the relative effectiveness of the Novogen isoflavone derivatives to common and well-known antioxidants such as ascorbate (2.5 mM; Vitamin C).

[3] = system: horseradish peroxidase (HRP) plus hydrogen peroxide (H2O2); test: Peroxidase-induced (HRP/H2O2) oxidation of linoleate; format: biochemical, horse radish; set-up: dose or concentration left out as unconfirmed
From the text: The test is similar to the peroxyl scavenging described in section 4.5 above, except that horseradish peroxidase (HRP) plus hydrogen peroxide (H2O2), were used instead of the peroxyl radical generator. Increased level of heme is considered as a potential risk factor for atherosclerosis, and heme-containing proteins may be involved in the oxidative modification of LDL. In the presence of H2O2, heme proteins give rise to a powerful oxidant (referred to as compound I) that can oxidatively modify lipids, including those in LDL. We therefore tested the ability of the isoflavone to inhibit such lipid oxidation using horse radish peroxidase as the model heme protein. HRP/H2O2-induced oxidation of linoleate was as described principally by Witting et al (1997) by replacing LDL with linoleate. Linoleate stock was added to PBS at 37° C. to give a final concentration of 300 mM and oxidized by HRP (40 U/mL)/H2O2 (2 mM) in the absence and presence of either 10 mM of Cpd. 7, Cpd. 8 or Cpd. 12, or 25 mM BHT (positive control). Formation of linoleate hydroperoxide was monitored by UV 234 nm using the Perkin Elmer's UV/Vis Lambda 40 spectrophotometer. The test was performed twice as single analysis. An appropriate concentration of alcohol (ethanol and isopropanol; 0.13% -0.2% v/v) was included in the respective control samples.

[4] = system: LDL receptor; test: LDL receptor expression on HepG2 cells, [125I]-LDL specific binding; format: cell-based, human; settings: for LDL receptor expression, Experiment 3 / LDL receptor expression, Experiment 2 / LDL receptor expression, Experiment 1: 48 hours; for LDL receptor expression, Experiment 3: control 130 ± 18; for LDL receptor expression, Experiment 2: control 261 ± 57; for LDL receptor expression, Experiment 1: control 283 ± 32; for effect on LDL binding / LDL receptor expression over control (in words): HepG2
Experimental: Confluent human hepatoma (HepG2) cells were preincubated in the absence or presence of the test compound (Cpd. 7, Cpd. 8 and Cpd. 12 at final concentration of 50 nM, 500 nM and […]) for 48 hours, in complete DMEM medium containing 10% fetal bovine serum (FBS). Serum deprivation (i.e. 0.5% FBS) was used as a positive control to induce LDL receptor expression. Following preincubation, cells were washed before […] of [^125I]-LDL (specific activity 6.5-29.5 cpm/fmol) was added and the cells incubated at 4° C. for another 4 hours in the absence (for total binding) and presence of […] unlabelled LDL (to assess non-specific binding). Cells were then washed, lysed (0.1 M NaOH), and the radioactivity and protein content (BCA assay) of the lysate determined. The number of LDL receptors was determined from the specific binding (total binding minus non-specific binding), assuming one molecule of LDL binds per LDL receptor. Three independent experiments (each in triplicate) were performed with different batches of cells and [^125I]-LDL.
To determine the concentration of LDL needed to reach binding saturation, confluent HepG2 cells were incubated in 12-well plates with increasing concentrations of [^125I]-LDL in the presence of excess (i.e., […]) unlabelled LDL. […] Using this concentration, the time required to reach saturation binding at 4° C. was determined to be approximately 4 hours. These established optimal conditions were used for all subsequent binding assays.

| Structure (SMILES) | proliferation of IMA-derived VSMC (in words) [1] | proliferation of IMA-derived VSMC at high concentrations (in words) ([1]; 10 mM and 100 mM) | ability to scavenge free radicals (in words) [2] | inhibition of linoleic acid oxidation by HRP/H2O2 compound I (in words) [3] | LDL receptor expression, Experiment 3 ([4]; 50 nM) | LDL receptor expression, Experiment 2 ([4]; 50 nM) | LDL receptor expression, Experiment 1 ([4]; 50 nM, mean ± SD, n = 3) | LDL receptor expression, Experiment 3 ([4]; 500 nM) | LDL receptor expression, Experiment 2 ([4]; 500 nM) | LDL receptor expression, Experiment 1 ([4]; 500 nM) | effect on LDL binding / LDL receptor expression over control (in words) [4] | cell damage ([1]; 10 mM and 100 mM) |
| --- | --- | --- | --- | --- | --- | --- | --- | --- | --- | --- | --- | --- |
| Oc1ccc(C2COc3cc(O)ccc3C2O)cc1 (stereo not drawn) [Cpd. 7] | significantly inhibited proliferation | relative increase in proliferation | significantly less active than Cpd. 8 and Cpd. 12 but still almost as active as ascorbate | able to inhibit linoleic acid oxidation by compound I as effectively as 25 mM BHT | 159 ± 30 fmol LDL receptors per mg cell protein | 239 ± 49 fmol LDL receptors per mg cell protein | 299 ± 45 fmol LDL receptors per mg cell protein | 171 ± 14 fmol LDL receptors per mg cell protein | 199 ± 58 fmol LDL receptors per mg cell protein | 281 ± 22 fmol LDL receptors per mg cell protein | increased LDL binding | – |
| Oc1ccc(C2COc3cc(O)ccc3C2O)cc1 (stereo not drawn) [Cpd. 8] | – | caused a significant increase in proliferation | very active scavengers | able to inhibit linoleic acid oxidation by compound I as effectively as 25 mM BHT | 152 ± 24 fmol LDL receptors per mg cell protein | 291 ± 66 fmol LDL receptors per mg cell protein | 273 ± 22 fmol LDL receptors per mg cell protein | 193 ± 18 fmol LDL receptors per mg cell protein | 291 ± 52 fmol LDL receptors per mg cell protein | 312 ± 42 fmol LDL receptors per mg cell protein | increased LDL binding | – |
| O=C1c2ccc(O)cc2OCC1c1ccc(O)cc1 (stereo not drawn) [Cpd. 5] | relatively inactive | – | – | – | – | – | – | – | – | – | – | – |
| Oc1ccc(C2=Cc3ccc(O)cc3OC2)cc1 [Cpd. 12] | did not appear to inhibit cellular proliferation | – | very active scavengers | inhibitory activity of Cpd. 7 and Cpd. 8 was greater than of an equimolar amount of Cpd. 12 | 156 ± 24 fmol LDL receptors per mg cell protein | 134 ± 52 fmol LDL receptors per mg cell protein | 319 ± 43 fmol LDL receptors per mg cell protein | 136 ± 23 fmol LDL receptors per mg cell protein | 233 ± 40 fmol LDL receptors per mg cell protein | 311 ± 35 fmol LDL receptors per mg cell protein | without consistent effect | caused significant cell damage |
